Test results: paper PMC9775191, “A Subset Screen of the Compounds Australia Scaffold Library Identifies 7-Acylaminodibenzoxazepinones as Potent and Selective Hits for Anti-Giardia Drug Discovery” (Biomedicines, 2022)

System: Escherichia coli (ATCC 25922)
Experiment: Anti-bacterial activity assay
Format: cell-based
Details: E. coli, A. baumannii and K. pneumoniae / bacteria, Table S2
Protocol: (§1) The activity of compounds against methicillin resistant Staphylococcus aureus (ATCC 43300), Escherichia coli (ATCC 25922), Acinetobacter baumannii (ATCC 19606) and Klebsiella pneumoniae (ATCC 700603) was assessed at 50 µM in duplicate as previously described. In brief, mid-log phase bacteria cultures were added to 384-well microtiter plate wells containing compound to final cell density of 5 × 10^5 CFU/mL in 50 µL. Plates were then covered and incubated at 37 °C for 18 h without shaking. Inhibition of bacterial growth was determined by measuring absorbance at 600 nm (Tecan M1000 Pro monochromator plate reader) and calculating percentage growth inhibition relative to the negative media and bacteria without inhibitors. Vancomycin hydrochloride (Sigma-Aldrich an affiliate of Merck KGaA, Darmstadt, Germany, #861987) and colistin sulfate (Sigma-Aldrich an affiliate of Merck KGaA, Darmstadt, Germany, C4461) were on each plate as positive controls for Gram-positive (S. aureus) and Gram-negative (E. coli, A. baumannii and K. pneumoniae) bacteria, respectively.

Row | Compound | selectivity index over bacteria
1 | Cc1cc(-c2cc(C(=O)Nc3ccc(N4CCN(C)CC4)nc3)c3cnn(C(C)C)c3n2)c(C)o1 [SN00776497] | > 600

Same assay, conditions: Escherichia coli, ATCC25922, 50 µM; read-out: Bacterial Inhibition E. coli

Row | Compound | inhibition at 50 µM
2 | Cc1cc(-c2cc(C(=O)Nc3ccc(N4CCN(C)CC4)nc3)c3cnn(C(C)C)c3n2)c(C)o1 [SN00776497] | 5.45%

System: Acinetobacter baumannii (ATCC 19606)
Experiment: Anti-bacterial activity assay
Format: cell-based
Details: ATCC19606, 50 µM
Protocol: as §1

Row | Compound | inhibition at 50 µM
3 | Cc1cc(-c2cc(C(=O)Nc3ccc(N4CCN(C)CC4)nc3)c3cnn(C(C)C)c3n2)c(C)o1 [SN00776497] | 19.6%

System: Klebsiella pneumoniae (ATCC 700603)
Experiment: Anti-bacterial activity assay
Format: cell-based
Details: ATCC700603, 50 µM, read-out: Bacterial Inhibition K. pneumoniae
Protocol: as §1

Row | Compound | inhibition at 50 µM
4 | Cc1cc(-c2cc(C(=O)Nc3ccc(N4CCN(C)CC4)nc3)c3cnn(C(C)C)c3n2)c(C)o1 [SN00776497] | 8.25%

System: methicillin resistant Staphylococcus aureus (ATCC 43300)
Experiment: Anti-bacterial activity assay
Format: cell-based
Details: 50 µM
Protocol: as §1

Row | Compound | Bacterial Inhibition S. aureus
5 | Cc1cc(-c2cc(C(=O)Nc3ccc(N4CCN(C)CC4)nc3)c3cnn(C(C)C)c3n2)c(C)o1 [SN00776497] | 56%

Same assay, conditions: Staphylococcus aureus, ATCC43300, 50 µM; read-out: Bacterial Inhibition S. aureus

Row | Compound | inhibition at 50 µM
6 | Cc1cc(-c2cc(C(=O)Nc3ccc(N4CCN(C)CC4)nc3)c3cnn(C(C)C)c3n2)c(C)o1 [SN00776497] | 55.8%

System: Neonatal foreskin fibroblast (NFF) cells
Experiment: Mammalian cell cytotoxicity assay (sulforhodamine B)
Format: cell-based, human
Details: Homo sapiens, NFF, mean ± SD; read-out: IC50 NFF
Protocol: The selectivity of compounds of interest was assessed against NFF cells. Assays were performed using sulforhodamine B and included media only, negative (no compound, no DMSO), and vehicle (DMSO) controls as previously described. A chloroquine control plate was included in each assay. […] Repurchased SN00797640 was tested in dose–response from 100 µM against NFF. Selectivity indices (SI) were calculated by dividing mammalian cell IC50 values by G. duodenalis BRIS/91/HEPU/1279 IC50 values.

Row | Compound | IC50
7 | Cc1cc(-c2cc(C(=O)Nc3ccc(N4CCN(C)CC4)nc3)c3cnn(C(C)C)c3n2)c(C)o1 [SN00776497] | 8100 nM

Same assay, conditions: NFF IC50 divided by G. duodenalis BRIS/91/HEPU/1279 IC50

Row | Compound | Selectivity
8 | Cc1cc(-c2cc(C(=O)Nc3ccc(N4CCN(C)CC4)nc3)c3cnn(C(C)C)c3n2)c(C)o1 [SN00776497] | 101

Same assay, conditions: Table S2; NFF vs 48 h Giardia IC50

Row | Compound | SI (48h Gd)
9 | Cc1cc(-c2cc(C(=O)Nc3ccc(N4CCN(C)CC4)nc3)c3cnn(C(C)C)c3n2)c(C)o1 [SN00776497] | 101

System: G. duodenalis BRIS/91/HEPU/1279
Experiment: Giardia dose response assay, assemblage B
Format: cell-based, Giardia duodenalis
Details: 48 h IC50
Protocol: In these assays, compounds were serially diluted (8–12-point doubling dilutions in technical duplicate) in DMSO control media, with all test wells inoculated with parasites (1.5 × 10^4 parasites for BRIS/91/HEPU/1279 and BRIS/91/HEPU/1279m1, or 3 × 10^3 parasites for BRIS/87/HEPU/713). […] All plates were sealed in culture chambers and gassed with 3% O2, 5% CO2 in N2 and incubated at 37 °C for 48 h, with parasites imaged and enumerated at 24 and 48 h. Growth inhibition was calculated as a percentage relative to vehicle controls minus any background as described above and IC50 values were determined using log-linear interpolation as previously described. […] Statistical comparison of IC50 values when required were performed using Student’s t-test.

Row | Compound | fold more potent than metronidazole
10 | Cc1cc(-c2cc(C(=O)Nc3ccc(N4CCN(C)CC4)nc3)c3cnn(C(C)C)c3n2)c(C)o1 [SN00776497] | > 30 fold

Same assay, conditions: Giardia duodenalis, 24 h, read-out: G. duodenalis IC50 24h, Table S2; 24 h; ±SD; max 10 µM

Row | Compound | IC50
11 | Cc1cc(-c2cc(C(=O)Nc3ccc(N4CCN(C)CC4)nc3)c3cnn(C(C)C)c3n2)c(C)o1 [SN00776497] | 250 ± 270 nM

Same assay, conditions: Giardia duodenalis, 48 h, BRIS/91/HEPU/1279; 48 h; mean ± SD; read-out: IC50 Giardia (48 h)

Row | Compound | IC50
12 | Cc1cc(-c2cc(C(=O)Nc3ccc(N4CCN(C)CC4)nc3)c3cnn(C(C)C)c3n2)c(C)o1 [SN00776497] | 80 nM

System: G. duodenalis BRIS/91/HEPU/1279
Experiment: Primary Giardia screen at 10 µM (live-cell imaging, automated counting)
Format: cell-based, Giardia duodenalis
Details: 48 h
How it was run: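 Percent growth versus 0.2% DMSO vehicle, background-corrected with media-only wells, is reported at 24 and 48 h from automated live-cell counts. Testing used 10 μM final in a 3% O2 atmosphere, with plate quality checked by Z' factor.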

Row | Compound | Average % Inhibition 48h
13 | Cc1cc(-c2cc(C(=O)Nc3ccc(N4CCN(C)CC4)nc3)c3cnn(C(C)C)c3n2)c(C)o1 [SN00776497] | > 90%

Same assay, conditions: Giardia duodenalis, 24 h, first singlicate assay, read-out: % Inhibition n=1 24h

Row | Compound | inhibition at 10 µM
14 | Cc1cc(-c2cc(C(=O)Nc3ccc(N4CCN(C)CC4)nc3)c3cnn(C(C)C)c3n2)c(C)o1 [SN00776497] | 94.6%

Same assay, conditions: Giardia duodenalis, 24 h, re-assessment, read-out: % Inhibition n=2 24h

Row | Compound | inhibition at 10 µM
15 | Cc1cc(-c2cc(C(=O)Nc3ccc(N4CCN(C)CC4)nc3)c3cnn(C(C)C)c3n2)c(C)o1 [SN00776497] | 97.2%

Same assay, conditions: Giardia duodenalis, 24 h, read-out: Average % Inhibition 24h

Row | Compound | inhibition at 10 µM
16 | Cc1cc(-c2cc(C(=O)Nc3ccc(N4CCN(C)CC4)nc3)c3cnn(C(C)C)c3n2)c(C)o1 [SN00776497] | 95.9%

Same assay, conditions: Giardia duodenalis, 48 h, first singlicate assay, read-out: % Inhibition n=1 48h

Row | Compound | inhibition at 10 µM
17 | Cc1cc(-c2cc(C(=O)Nc3ccc(N4CCN(C)CC4)nc3)c3cnn(C(C)C)c3n2)c(C)o1 [SN00776497] | 98%

Same assay, conditions: Giardia duodenalis, 48 h, re-assessment, read-out: % Inhibition n=2 48h

Row | Compound | inhibition at 10 µM
18 | Cc1cc(-c2cc(C(=O)Nc3ccc(N4CCN(C)CC4)nc3)c3cnn(C(C)C)c3n2)c(C)o1 [SN00776497] | 98.5%

Same assay, conditions: Giardia duodenalis, 48 h, read-out: Average % Inhibition 48h

Row | Compound | inhibition at 10 µM
19 | Cc1cc(-c2cc(C(=O)Nc3ccc(N4CCN(C)CC4)nc3)c3cnn(C(C)C)c3n2)c(C)o1 [SN00776497] | 98.2%
